The values that follow come from patent US20190364891A1, “Chemical Compositions for Combating Honey Bee Pests and Pathogens” (Fort Lewis College, priority 2018, published 2019).

For series [1], the system named is Varroa mites. Kind of series: whole plant or invertebrate. The settings on record: for mite mortality: 24 h; for statistically significant mite mortality (Kruskal-Wallis): at 24 h, 100 mg/mL, 250 mg/mL, 1 g/mL tested, 15, 30 or 45 min exposure. How it is done: Efficacy of 12 caffeic and ferulic acid/ester molecules (caffeic acid, ferulic acid, caffeic acid cinnamyl ester, caffeic acid phenethyl ester, caffeic acid 3-methyl-3-butenyl ester, caffeic acid 3-methyl-2-butenyl ester, caffeic acid benzyl ester, ferulic acid cinnamyl ester, ferulic acid phenethyl ester, ferulic acid 3-methyl-3-butenyl ester, ferulic acid 3-methyl-2-butenyl ester, ferulic acid benzyl ester) against Varroa mites in a laboratory assay was determined. Adult female mites were collected from a single honey bee colony by uncapping drone cells and removing the mites to avoid injury that might occur if other methods (e.g., sugar shake) were used. Mites lacking vigor were discarded prior to experiment. Varroa were removed from single-age pupae, randomized, and placed in groups of ten in a sealed chamber. They were left in an incubator with pupae. After a set amount of time, the Varroa were transferred to a chamber with a potential miticide. The effects of each miticide were evaluated both through contact and through vapor. Concentrations and contact time were also evaluated. The Varroa were then transferred back to their chamber in the incubator and checked for mortality (each experiment in triplicate). […] Treatments were tested for their efficacy in repelling and killing mites.
To test for contact-phase miticidal activity, 250 μl of each treatment was evenly applied to a Whatman No. 4 filter paper in a Petri dish. The paper was allowed to completely dry before the assay and then it was adhered to the bottom of the dish. Ten mites per treatment were placed directly on the filter paper and the mites were kept in the dish for either 15 min, 30 min, or 45 min. After the initial time period, all mites were transferred into a sterile Petri dish and maintained in an incubator for 30 h. Each hour the mites were removed and observed under a dissecting lens. Each treatment concentration and exposure period was repeated three times.
Statistical analysis for repellency was conducted on the mean number of mites repelled and was compared by a two-way ANOVA. […] Percent mortality was compared between treatments by a non-parametric Kruskal-Wallis test.

In series [2] the test system is Varroa mites. Kind of series: Example 2: mites exposed to filter paper impregnated with the caffeic ester family, mite mortality and activity. Also noted: species or system Varroa destructor. The settings on record: assessed 6 h, 24 h, 30 h post exposure; various concentrations and exposure times. On the procedure:
In a series of assays, Whatman filter paper was impregnated with various concentrations of the caffeic ester family of molecules. Varroa mites were freshly harvested from brood frames and then directly exposed to the substrate. The exposure time was varied across different experiments. The Varroa mites were removed and placed into an incubator with pupae to feed on. Mite mortality and mite activity was assessed at several time points (6 h, 24 h, 30 h) post exposure.

As to `O=C(/C=C/c1ccc(O)c(O)c1)OCC=Cc1ccccc1` [caffeic acid cinnamyl ester], the mite mortality entry in series [1] was “over 60%”.

For the compound `O=C(/C=C/c1ccc(O)c(O)c1)OCCc1ccccc1` [caffeic acid phenethyl ester], in series [2], the “relative efficacy (mite mortality and activity)” value is recorded as “most efficacious molecule tested”.

Take `O=C(O)/C=C/c1ccc(O)c(O)c1` [caffeic acid]: the “statistically significant mite mortality (Kruskal-Wallis)” value in series [1] was “all of the molecules except caffeic acid and ferulic acid showed statistically significant mite mortality”.

`COc1cc(/C=C/C(=O)OCC=C(C)C)ccc1O` [ferulic acid 3-methyl-2-butenyl ester]: the mite mortality entry in series [1] is given as “over 60%”.

Take `COc1cc(/C=C/C(=O)O)ccc1O` [ferulic acid]: the “statistically significant mite mortality (Kruskal-Wallis)” value in series [1] was “all of the molecules except caffeic acid and ferulic acid showed statistically significant mite mortality”.

On to `Cc1ccc(C(C)C)c(O)c1` [thymol, reference compound], for which the mortality at 100000 µg/mL in series [1] (Varroa destructor, 6 h, read-out: mortality (positive control)) came out at 100%.
